Assay results: patent publication US20050014767A1, “Benzoxazole, benzothiazole, and benzimidazole derivatives for the treatment of cancer and other diseases” (priority 2003, published 2005)
“Also recorded” adds a separate entry of the source. Values belong to the molecule of their own block, whether it stands above or below them.

Legend:
[1] = test system: phosphorylated JNK proteins; assay: Western Blot assay for JNK protein phosphorylation in H292 lung cancer cells; type: cell-based, human; settings: 2.5 micromolar, 16 hours, FIG. 15
Method: Phosphorylated JNK proteins can be specifically detected by employing an antibody specific to phosphorylated JNK, followed by Western Blotting analysis. […] In particular, the human lung cancer cell line H292, purchased from the American Type Culture Collection (ATCC) (Manassas, Va.), was tested for JNK-activation induced by compounds 1, 2, 11, and 12 described herein.
H292 cells were grown in RPMI medium 1640 containing 2 mM L-glutamine; 10 U/ml Pen-G; 10 mcg/ml Streptomycin and 10% FCS.
Cells were kept at 6% CO2 and 37° C. H292 cells were plated at 70% confluence (adherent growing cells covering 70% of culture plate surface area) in a 10 centimeter tissue culture dish in the medium indicated above.
Compounds 1, 2, 11, and 12 were applied to cultures of the H292 cells in the medium indicated above at a concentration of 2.5 micromolar. DMSO (dimethyl sulfoxide, Sigma, St. Louis, Mo.) was used as vehicle control, and never exceeded 0.1% final concentration. Treatment was for 16 hours.
At the end of incubation of the cultured cells with the test compounds, the medium was removed and the plated cells were washed twice with cold PBS (phosphate buffer saline). Excess PBS was aspirated away and the cells were lysed and scraped into sample buffer containing 50 mM HEPES pH 7.5 (buffer), 150 mM NaCl, 0.1% Tween 20 (a detergent, Biorad, Hercules, Calif.), 20 mM NaF, 10 mcg/mL aprotinin, 10 mcg/mL leupeptin. Samples were incubated on ice for 15 minutes and insoluble material was pelleted by microfugation. Protein concentrations for each sample were determined using BSA (Bovine serum albumin, Sigma, St Louis, Mo.) as a standard in a colorimetric protein quantification assay (BioRad, Hercules, Calif.).
100 mcg of each sample of cellular lysate were subjected to electrophoresis on 12% SDS-PAGE (polyacrylamide gel electrophoresis) gels (BioRad, Hercules, Calif.). Proteins were transferred to PVDF membrane. Membranes were probed with a monoclonal antibody recognizing phosphorylated JNK (Cell Signaling, Beverly, Mass.) followed by HRP(horseradish peroxidase)-conjugated goat-anti-mouse antibody (Santa Cruz Biotechnology, Santa Cruz, Calif.). Immunoreative bands were visualized by ECL (enhanced chemiluminescence, Amersham, Buckinghanshire, England) detection on film (Kodak, Rochester, N.Y.).

BX-PC-3 cells = assay: MTT assay, pancreatic cancer cell line; type: cell-based, human; settings: BX-PC-3 pancreatic cancer cells; 1x10^-8 to 1x10^-5 M; FIG. 10
From the text: (§1) Representative compounds of the invention were screened for anti-cancer activity by the procedures and methods described below. The following human cancer cell lines were used to detect anti-cancer activity. • The breast cancer cell line MDA-MB468 served to detect anti-breast cancer activity. • The prostate cancer cell line PC-3 was used to detect anti-prostate cancer activity • The non-small-cell lung cancer cell line A549 was used to detect anti-lung cancer activity • The pancreatic cancer cell line BX-PC-3 was used to detect anti-pancreatic cancer activity. • Cell lines were purchased from American Type Culture Collection (ATCC). Cell Culture conditions:
(§2) The cancer cell cultures were grown as recommended by the ATTC manuals. A549 cells and BX-PC-3 cells were grown in DME Dulbecco's modified Eagle's medium containing 4500 mg/L glucose; 4 mM L-glutamine; 10 U/ml Pen-G; 10 mcg/ml […] and 10% fetal calf serum (FCS). PC-3 and MDA-MB468 cells were grown in RPMI medium 1640 containing 2 mM L-glutamine; 10 U/ml Pen-G; 10 mcg/ml Streptomycin and 10% FCS. Cells were kept at 6% CO2 and 37° C. Cells were seeded on day zero in 96-well format tissue culture plates at suitable densities the day before starting treatment, in the media indicated above.
(§3) On day one, the compounds of the invention were added to the culture media of growing cells, containing 10% […]. The cell media contained the compounds of the invention at one of six concentrations: 1×10^−8, 5×10^−8, 1×10^−7, 5×10^−7, 1×10^−6, and 1×10^−5M. In control experiments, 0.1% DMSO was used as vehicle control, and never exceeded 0.1% final concentration. On day four the media was removed from the cells and replaced with fresh media containing the compounds of the invention and FCS at the appropriate concentrations.
(§4) On day five 10 μl of 5 mg/ml MTT dye was added to each well containing a cell culture. […] On day 6 the formazan crystals formed were solubilized and the resulting colored solution quantified using a scanning multiwell spectrophotometer at a wavelength of 595 nm. […]

MDA-MB468 cells = assay: MTT assay, breast cancer cell line; type: cell-based, human; settings: 1x10^-8 to 1x10^-5 M, FIG. 8
From the text: as §1, §2, §3, §4

A549 cells = assay: MTT assay, non-small-cell lung cancer cell line; type: cell-based, human; settings: 1x10^-8 to 1x10^-5 M, FIG. 7
From the text: as §1, §2, §3
On day five 10 μl of 5 mg/ml MTT dye was added to each well containing a cell culture. The MTT assay is based on the dehydrogenase activity in active mitochondria for cleavage of the yellow tetrazolium salt MTT to produce purple formazan crystals. This conversion of MTT only occurs in living cells with intact/functional mitochondria. After addition of MTT, the cells were incubated for additional 4 hours at 6% CO2 and 37° C. Reaction was then stopped by adding 100 μl/well of a solubilization solution consisting of 10% Sodium Dodecyl Sulfate (SDS) and 10 mM HCl. On day 6 the formazan crystals formed were solubilized and the resulting colored solution quantified using a scanning multiwell spectrophotometer at a wavelength of 595 nm.
The procedure of Example 21 was employed to measure the anti-cancer activity of compounds 1 & 2 of the invention and compare them with equivalent activity tests for Comparative Compound 4, whose synthesis is given in Example 4. […]

PC-3 cells = assay: MTT assay, prostate cancer cell line; type: cell-based, human; settings: PC-3 prostate cancer cells; 1x10^-8 to 1x10^-5 M; FIG. 9
From the text: as §1, §2, §3, §4

SMILES: Cc1nc2cc(-c3ccc(/C=C4\SC(=O)NC4=O)cn3)cc(C34CC5CC(CC(C5)C3)C4)c2o1 [Compound 1, 5-[6-(7-Adamantan-1-yl-2-methyl-benzoxazol-5-yl)-pyridin-3-ylmethylene]-thiazolidine-2,4-dione]
phosphorylation of JNK proteins (phospho-JNK bands) [1]: results in the production of phosphorylated JNK proteins; also recorded: induced the phosphorylation of JNK proteins; also recorded: potent activators of the phosphorylation of JNK proteins | anti-cancer activity (MTT) (BX-PC-3 cells): consistent and potent anti-cancer activity at low concentrations | anti-cancer activity (MTT) (MDA-MB468 cells): consistent and potent anti-cancer activity at low concentrations | anti-cancer activity (MTT) (A549 cells): consistent and potent anti-cancer activity at low concentrations | anti-cancer activity (MTT) (PC-3 cells): consistent and potent anti-cancer activity at low concentrations

SMILES: O=C1NC(=O)/C(=C/c2ccc(-c3cc(C45CC6CC(CC(C6)C4)C5)c4ocnc4c3)nc2)S1 [Compound 2, 5-[6-(7-Adamantan-1-yl-benzoxazol-5-yl)-pyridin-3-ylmethylene]-thiazolidine-2,4-dione]
phosphorylation of JNK proteins (phospho-JNK bands) [1]: results in the production of phosphorylated JNK proteins; also recorded: induced the phosphorylation of JNK proteins; also recorded: potent activators of the phosphorylation of JNK proteins | anti-cancer activity (MTT) (BX-PC-3 cells): consistent and potent anti-cancer activity at low concentrations | anti-cancer activity (MTT) (MDA-MB468 cells): consistent and potent anti-cancer activity at low concentrations | anti-cancer activity (MTT) (A549 cells): consistent and potent anti-cancer activity at low concentrations | anti-cancer activity (MTT) (PC-3 cells): consistent and potent anti-cancer activity at low concentrations

melting point: 314 to 316 °C
SMILES: Cc1nc2cc(-c3ccc(/C=C4\SC(=O)NC4=O)cn3)cc(C3CCCCC3)c2o1 [Compound 11, 5-[6-(7-Cyclohexyl-2-methyl-benzoxazol-5-yl)-pyridin-3-ylmethylene]-thiazolidine-2,4-dione]
phosphorylation of JNK proteins (phospho-JNK bands) [1]: only weakly induced the phosphorylation of JNK proteins | anti-cancer activity (MTT) (A549 cells): only relatively weak activity

SMILES: O=C1NC(=O)/C(=C/c2ccc(-c3cc(C4CCCCC4)c4ocnc4c3)nc2)S1 [Compound 12, 5-[6-(7-Cyclohexyl-benzoxazol-5-yl)-pyridin-3-ylmethylene]-thiazolidine-2,4-dione]
phosphorylation of JNK proteins (phospho-JNK bands) [1]: results in the production of phosphorylated JNK proteins; also recorded: activates the phosphorylation of JNK proteins, though perhaps less potently than compound 1 or 2

SMILES: Nc1nc2cc(-c3ccc(/C=C4\SC(=O)NC4=O)cn3)cc(C34CC5CC(CC(C5)C3)C4)c2o1 [Compound 14, 5-[6-(7-Adamantan-1-yl-2-amino-benzoxazol-5-yl)-pyridin-3-ylmethylene]-thiazolidine-2,4-dione]
anti-cancer activity (MTT) (BX-PC-3 cells): consistent and potent anti-cancer activity at low concentrations | anti-cancer activity (MTT) (MDA-MB468 cells): consistent and potent anti-cancer activity at low concentrations | anti-cancer activity (MTT) (A549 cells): consistent and potent anti-cancer activity at low concentrations | anti-cancer activity (MTT) (PC-3 cells): consistent and potent anti-cancer activity at low concentrations
